Measured values reported in patent US8415393B2, “Anti-bacterial drug targeting of genome maintenance interfaces” (Wisconsin Alumni Research Foundation, priority 2007, dated 2013).
In brackets after ≈: the same amount, converted by molar mass. Like-named read-outs stand apart in the source and are kept apart here. Where no end group is shown, it is not given here. fluorescein = fluorescein moiety attached to the N-terminus of the peptide (N-terminal fluorescein label)

Experiments:
E. coli (imp4213) = test: MIC on solid media, E. coli; type: cell-based; conditions: Escherichia coli, read-out: MIC (E. coli)
B. subtilis = test: Growth on solid media (MIC; agar plates with compound), B. subtilis; type: cell-based, Bacillus subtilis; conditions: for MIC / growth on agar plates: Bacillus subtilis; for MIC: solid media, B. subtilis; for Bactericidal for B. subtilis: Table 3 info column; for growth on agar plates: 100 μM compound in agar
Method: (§1) A number of the tested candidate compounds had profound inhibitory effects on bacterial growth. In addition, it was discovered that the identified drug compounds can slow the growth of a number of other Gram-positive bacterial species. For example, the growth of Bacillus subtilis and Enterococcus faecalis was inhibited when these bacteria were grown on agar plates containing 100 μM of either compound 9 or compound 10.

[1] = test system: E. coli 4213 (imp4213, compromised cell wall); test: microbe, parasite or virus in culture; type: cell-based; conditions: Escherichia coli
Method: The compromised cell wall allows the chemicals to pass through it more readily.
(§2) 100 μL of LB containing E. coli 1655, E. coli 4213, or S. aureus at A ˜0.05 OD 600 was aliquoted in 96 well plates. One μL of compound in DMSO was added to final concentrations given. Plates were incubated at 37° C. with shaking at 250 RPM. Rate of growth was calculated by determining the average change in OD/hour that took place between hours 3 and 7 (log growth phase). The graphs shown herein are plots of this bacterial growth rate (change in OD/h) against inhibitor concentration in μM.

[2] = test system: Staphylococcus aureus 12598; test: Bacterial growth assay in LB liquid media, S. aureus; type: cell-based; conditions: Staphylococcus aureus, 12598
Method: as §2

red blood cells = test: In vitro hemolysis; type: cell-based; conditions: for % hemolysis at given concentration: 1 hour; for Hemolysis: Table 3, minimum concentration necessary to lyse red blood cells
Method: The identified small molecules were incubated with red blood cells to see what percentage of cells would lyse after 1 hour. Estimated hemolysis data are due to problem with reading absorbance, when the compound absorbs at the same wavelength as heme or if the compound precipitates. In such instances it is difficult to quantitate the absorbance readings; however, visual determination of how many cells have lysed can then be performed, which provides an estimate of cell lysis.

[3] = test system: HT-29 (human colorectal adenocarcinoma) cells; test: Mammalian cell toxicity, CellTiter-Glo cell viability assay; type: cell-based
Method: The toxicity of the identified antimicrobial candidate compounds was tested using human colorectal adenocarcinoma cells in vitro. […] The mammalian cells were tested using a CellTiter-Glo cell viability assay (Promega, Madison, Wis.).

[4] = target: Exonuclease I/SSB-Ct complex (Escherichia coli, UniProt P04995); test: Fluorescence polarization competition: inhibition of fluorescein-SSB C-terminal peptide binding to Exonuclease I (HTS and Ki determination)
Sequence of Exonuclease I/SSB-Ct complex (P04995 whole entry, one chain of several): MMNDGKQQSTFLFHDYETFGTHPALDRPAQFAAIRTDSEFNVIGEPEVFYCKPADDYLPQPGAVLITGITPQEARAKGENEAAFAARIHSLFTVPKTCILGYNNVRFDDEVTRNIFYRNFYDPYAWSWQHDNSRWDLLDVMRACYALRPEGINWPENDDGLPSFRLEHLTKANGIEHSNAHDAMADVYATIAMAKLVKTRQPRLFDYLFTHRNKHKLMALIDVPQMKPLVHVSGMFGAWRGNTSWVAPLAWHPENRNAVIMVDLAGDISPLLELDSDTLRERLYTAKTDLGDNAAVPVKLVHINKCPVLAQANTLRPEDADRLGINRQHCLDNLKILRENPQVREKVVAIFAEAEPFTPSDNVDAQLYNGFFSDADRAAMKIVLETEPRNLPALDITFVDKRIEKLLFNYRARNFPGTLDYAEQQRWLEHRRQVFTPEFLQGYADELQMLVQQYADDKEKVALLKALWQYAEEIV
Method: Peptide binding assays were performed in solution, using the peptides from above, and Exonuclease I, in the absence or presence of various compounds. Different amounts of Exonuclease I (ExoI) were used in the peptide binding assays. […] Fluorescence polarization (FP) was measured at 25° C. in triplicate; the average FP value was plotted with standard deviation of the mean shown as error.
Concentrated Exonuclease I was dialyzed overnight into 2 liters dilution buffer (DB) (20 mM Tris pH 8.0 HCl, 100 mM NaCl, 1 mM MgCl2, and 1 mM Beta-Mercaptoethanol). […] After sitting at room temperature for 5 min, a liquid handling system was used to aliquot this solution into 384 well plates providing 30 microliters/well. One microliter of 1 mM compound was then added. The screened compounds were obtained from the ChemBridge DIVERSet library (ChemBridge Corporation, San Diego, Calif.), from the Maybridge HitFinder library (Thermo Fisher Scientific, Waltham, Mass.), from the ChemDiv library (Chemical Diversity Labs, San Diego, Calif.), or from the Known Bioactive Library—KBA01.
The FP (fluorescence polarization) values for each well were read using a (plate reader) 5 minutes after compound addition.
Increasing amounts of compound were titrated into peptide protein mixture until FP values were lowered to values given by only fluorescently labeled peptide alone. Ki values were determined using the Ki calculator for fluorescence-based competitive binding assays of Prof. Shaomeng Wang, University of Michigan (Nikolovska-Coleska et al., 2004, Anal. Biochem. 332: 261-273).

[5] = target: Escherichia coli Exonuclease I (Escherichia coli) (UniProt P04995); test: cell-based or functional assay
[6] = target: ExoI Arg316 Ala variant (Escherichia coli) (UniProt P04995); test: cell-based or functional assay
Enterococcus faecalis = test: Growth on agar plates containing compound, Enterococcus faecalis; type: cell-based; conditions: 100 μM compound in agar
Method: as §1

Deinococcus radiodurans = test: Growth on agar plates containing compound, Deinococcus radiodurans; type: cell-based; conditions: tested in a similar manner (100 μM in agar)
Method: as §1

[7] = target: Topoisomerase III (TopoIII)/C-terminal tail of E. coli SSB (Escherichia coli, UniProt P14294); test: Topoisomerase III peptide binding (fluorescence anisotropy); conditions: 100 μM final concentration, 1% DMSO
Sequence of Topoisomerase III (TopoIII)/C-terminal tail of E. coli SSB (P14294 whole entry): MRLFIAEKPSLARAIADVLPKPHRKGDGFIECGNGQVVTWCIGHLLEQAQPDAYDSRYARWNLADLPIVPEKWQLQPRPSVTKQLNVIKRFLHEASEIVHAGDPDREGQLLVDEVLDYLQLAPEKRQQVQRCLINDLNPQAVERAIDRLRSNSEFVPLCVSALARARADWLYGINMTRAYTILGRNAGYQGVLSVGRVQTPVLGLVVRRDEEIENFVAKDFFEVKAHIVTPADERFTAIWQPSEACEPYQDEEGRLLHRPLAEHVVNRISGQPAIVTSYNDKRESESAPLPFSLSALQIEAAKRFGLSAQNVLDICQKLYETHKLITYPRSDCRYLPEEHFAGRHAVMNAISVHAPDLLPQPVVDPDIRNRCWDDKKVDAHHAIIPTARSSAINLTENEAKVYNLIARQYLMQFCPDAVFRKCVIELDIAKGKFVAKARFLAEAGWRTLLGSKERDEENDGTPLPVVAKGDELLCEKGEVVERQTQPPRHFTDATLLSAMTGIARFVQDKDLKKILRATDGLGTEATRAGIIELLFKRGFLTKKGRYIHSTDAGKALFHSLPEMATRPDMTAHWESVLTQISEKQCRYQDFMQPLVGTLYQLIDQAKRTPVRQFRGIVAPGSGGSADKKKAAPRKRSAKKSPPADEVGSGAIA
Method: TopoIII was titrated into 10 nM fluorescent peptide, as described above for the ExoI binding assays. The buffer conditions for this binding assay were: 300 mM NaCl, 20 mM Tris pH 8.0, 10% Glycerol, 1 mM BME (Beta-Mercaptoethanol), and 1% DMSO. Concentrations of TopoIII used are given on the graph in FIG. 24. Changes in anisotropy upon binding were read using PanVera Beacon 2000 FP.
Either unlabeled peptide or various compounds were then added to a final concentration of 100 μM. These compounds and unlabeled peptide were dissolved in DMSO and their addition brought the final concentration of DMSO to 1%.

[8] = target: T1, fluorescein-labeled SSB C-terminal peptide, fluorescein-WMDFDDDIPF (E. coli); test: equilibrium fluorescence anisotropy
T1 construct: also called F-WT; F-SSB-Ct
T1 peptide: fluorescein-WMDFDDDIPF

[9] = read-out: IC50 μM inhibitor, inhibition of E. coli growth
[10] = read-out: IC(50) E. coli imp4213
[11] = Table 3, reduce growth 50% in liquid media, unit not given (Table 5 gives μM), read-out: IC(50) S. aureus
[12] = Table 5, read-out: IC50 μM inhibitor, inhibition of S. aureus growth
[13] = compound listing, bacterial growth in LB, read-out: IC50 Staphylococcus aureus
[14] = HT-29, Table 3, unit inferred, read-out: IC(50) Human cell line
[15] = HT-29 cells, CellTiter-Glo, read-out: IC50

Molecule	MIC (E. coli (imp4213))	MIC (B. subtilis)	IC50 [1, 9]	IC50 ([1]; read-out: IC50 E. coli 4213)	IC50 [1, 10]	IC50 [2, 11]	IC50 [2, 12]	IC50 [2, 13]	Hemolysis (red blood cells)	IC50 [3, 14]	IC50 [3, 15]	Ki [4]	Ki ([4]; Ki estimates, Table 2)	Ki ([4]; Ki, compound listing)	also measured
O=C(O)C(Cc1ccccc1)N1C(=O)/C(=C/c2cccc(Br)c2)SC1=S (stereo not shown) [Compound 3, 2-[5-(3-bromobenzylidene)-4-oxo-2-thioxo-1,3-thiazolidin-3-yl]-3-phenylpropanoic acid]	3.6 µg/mL (≈ 8.03 µM)	3.6 µg/mL (≈ 8.03 µM)	6 µM	5.5 µM	6 µM	9 µM	9 µM	10 µM	~100 µM	12 µM	> 100 µM	2.5 µM	2.5 µM	~2.5 µM	Bactericidal for B. subtilis (B. subtilis): Compound 3; also called BOTP. Came from original Maybridge HTS collection. Bactericidal for B. subtilis; % hemolysis at given concentration (red blood cells; 100 μM): 20% 100
E. coli single-stranded DNA-binding protein (from UniProt P0AGE0 2-178)	–	–	–	–	–	–	–	–	–	–	–	–	–	–	ExoI nuclease activity on radiolabeled ssDNA, stimulation by SSB [5]: 4 fold; SSB-stimulated ExoI nuclease activity [6]: < 2 fold
CC(/C=C1\SC(=S)N(C(C(=O)O)c2ccccc2)C1=O)=C\c1ccccc1 (stereo not shown) [Compound 8, [5-(2-methyl-3-phenyl-2-propen-1-ylidene)-4-oxo-2-thioxo-1,3-thiazolidin-3-yl](phenyl)acetic acid]	4 µg/mL (≈ 10.1 µM)	6.3 µg/mL (≈ 15.9 µM)	11 µM	11 µM	11 µM	29 µM	30 µM	29 µM	~200 µM	> 100 µM	> 100 µM	4 µM	4 µM	~4 µM	Bactericidal for B. subtilis (B. subtilis): Compound 8; also called MPTA. Came from original Maybridge HTS collection. Bactericidal for B. subtilis; % hemolysis at given concentration (red blood cells; 200 μM): estimated 0% 200; % hemolysis at given concentration (red blood cells; 400 μM): estimated 90% 400 uM
CC(C)(C)C1=NN(c2nc3ccc(Cl)cc3s2)C(=O)C1 [Compound 9, 3-(tert-butyl)-1-(6-chloro-1,3-benzothiazol-2-yl)-4,5-dihydro-1H-pyrazol-5-one]	9 µg/mL (≈ 29.2 µM)	6.2 µg/mL (≈ 20.1 µM)	6 µM	6 µM	6 µM	6 µM	6 µM	5.5 µM	>800 µM	> 100 µM	38 µM	0.8 µM	2.2 µM	~0.773 µM	growth on agar plates (B. subtilis): inhibited; % hemolysis at given concentration (red blood cells; >800 μM): 0% >800; growth on agar plates (Enterococcus faecalis): inhibited; growth on agar plates (Deinococcus radiodurans): inhibited
COc1ccc(Nc2cc(C(F)(F)F)ccc2Cl)c(C(=O)O)c1 [Compound 10, 2-[2-chloro-5-(trifluoromethyl)anilino]-5-methoxybenzoic acid]	12.3 µg/mL (≈ 35.6 µM)	11.1 µg/mL (≈ 32.1 µM)	30 µM	30 µM	30 µM	20 µM	20 µM	18 µM	~800 µM	> 100 µM	60 µM	0.1 µM	0.35 µM	~0.125 µM	inhibition of fluorescent peptide binding to TopoIII (anisotropy) [7]: inhibit binding; growth on agar plates (B. subtilis): inhibited; % hemolysis at given concentration (red blood cells; 400 μM): 0% 400; % hemolysis at given concentration (red blood cells; 800 μM): 85% at 800 μM; growth on agar plates (Enterococcus faecalis): inhibited; growth on agar plates (Deinococcus radiodurans): inhibited
ExoI Glu150 Ala variant (enzyme, also called E150A; Glu150 variant) MMNDGKQQSTFLFHDYETFGTHPALDRPAQFAAIRTDSEFNVIGEPEVFYCKPADDYLPQPGAVLITGITPQEARAKGENEAAFAARIHSLFTVPKTCILGYNNVRFDDEVTRNIFYRNFYDPYAWSWQHDNSRWDLLDVMRACYALRPAGINWPENDDGLPSFRLEHLTKANGIEHSNAHDAMADVYATIAMAKLVKTRQPRLFDYLFTHRNKHKLMALIDVPQMKPLVHVSGMFGAWRGNTSWVAPLAWHPENRNAVIMVDLAGDISPLLELDSDTLRERLYTAKTDLGDNAAVPVKLVHINKCPVLAQANTLRPEDADRLGINRQHCLDNLKILRENPQVREKVVAIFAEAEPFTPSDNVDAQLYNGFFSDADRAAMKIVLETEPRNLPALDITFVDKRIEKLLFNYRARNFPGTLDYAEQQRWLEHRRQVFTPEFLQGYADELQMLVQQYADDKEKVALLKALWQYAEEIV	–	–	–	–	–	–	–	–	–	–	–	–	–	–	fold enhanced binding relative to wild-type ExoI [8]: ~2 fold
ExoI Glu318 Ala variant (enzyme, also called E318A; Glu318 variant) MMNDGKQQSTFLFHDYETFGTHPALDRPAQFAAIRTDSEFNVIGEPEVFYCKPADDYLPQPGAVLITGITPQEARAKGENEAAFAARIHSLFTVPKTCILGYNNVRFDDEVTRNIFYRNFYDPYAWSWQHDNSRWDLLDVMRACYALRPEGINWPENDDGLPSFRLEHLTKANGIEHSNAHDAMADVYATIAMAKLVKTRQPRLFDYLFTHRNKHKLMALIDVPQMKPLVHVSGMFGAWRGNTSWVAPLAWHPENRNAVIMVDLAGDISPLLELDSDTLRERLYTAKTDLGDNAAVPVKLVHINKCPVLAQANTLRPADADRLGINRQHCLDNLKILRENPQVREKVVAIFAEAEPFTPSDNVDAQLYNGFFSDADRAAMKIVLETEPRNLPALDITFVDKRIEKLLFNYRARNFPGTLDYAEQQRWLEHRRQVFTPEFLQGYADELQMLVQQYADDKEKVALLKALWQYAEEIV	–	–	–	–	–	–	–	–	–	–	–	–	–	–	fold enhanced binding relative to wild-type ExoI [8]: ~2 fold
ExoI Lys227 Ala variant (enzyme, basic ridge variant; also called K227A; Lys227 variant) MMNDGKQQSTFLFHDYETFGTHPALDRPAQFAAIRTDSEFNVIGEPEVFYCKPADDYLPQPGAVLITGITPQEARAKGENEAAFAARIHSLFTVPKTCILGYNNVRFDDEVTRNIFYRNFYDPYAWSWQHDNSRWDLLDVMRACYALRPEGINWPENDDGLPSFRLEHLTKANGIEHSNAHDAMADVYATIAMAKLVKTRQPRLFDYLFTHRNKHKLMALIDVPQMAPLVHVSGMFGAWRGNTSWVAPLAWHPENRNAVIMVDLAGDISPLLELDSDTLRERLYTAKTDLGDNAAVPVKLVHINKCPVLAQANTLRPEDADRLGINRQHCLDNLKILRENPQVREKVVAIFAEAEPFTPSDNVDAQLYNGFFSDADRAAMKIVLETEPRNLPALDITFVDKRIEKLLFNYRARNFPGTLDYAEQQRWLEHRRQVFTPEFLQGYADELQMLVQQYADDKEKVALLKALWQYAEEIV	–	–	–	–	–	–	–	–	–	–	–	–	–	–	fold binding defect [8]: 7 fold
